The source of these data is patent US20050085413A1, “Dimeric pharmaceutical compounds and their use” (priority 2001, published 2005).

In brackets after ≈: the same amount, converted by molar mass. Several values for one entry are separate records, joined by “and”; a condition that tells them apart may be missing. Equal values may be shown once. Where a name gives a salt, the structure may show the parent alone.

Holding throughout (assay): Plaque reduction assay (PRA) in MDCK cells
The test system of assay [1] is A/New Caledonia/20/99 BVLV008 (H1N1). In kind it is cell-based, influenza virus. As to conditions: plaque numbers reduced by 50%; for EC50: Influenza A virus, H1N1, MDCK, read-out: EC50 ng/ml PRA A/New.
Assay [2] has as its system A/Victoria/3/75 BVLV017 (H3N2). Format: cell-based, influenza virus. Particulars: plaque numbers reduced by 50%.
For a further assay, the system named is B/Harbin/7/95 BVLV008. Format: cell-based, influenza virus. Particulars: read-out: EC50 ng/ml PRA B/Harb.
The subject of another assay is A/WSN/33 BVLV09 (H1N1). In kind it is cell-based, influenza virus. Particulars: plaque numbers reduced by 50%; for EC50: Influenza A virus, MDCK, read-out: EC50 ng/ml PRA A/WSN.
The subject of a further assay is B/Hong Kong/5/72 BVLV012. In kind it is cell-based, influenza virus. Particulars: for EC50: MDCK, read-out: EC50 ng/ml PRA B/HongK.
For assay [3], the system named is A/Sydney/5/97 BVLV015 (H3N2). In kind it is cell-based, influenza virus. As to conditions: plaque numbers reduced by 50%; for EC50: Influenza A virus, MDCK, read-out: EC50 ng/ml PRA A/Syd.
The subject of assay [4] is A/Bayern/7/95 BVL006 (H1N1). Format: cell-based. Particulars: Influenza A virus, plaque numbers reduced by 50%, read-out: EC50 ng/ml PRA A/Bay.
Assay [5] concerns A/Panama/2007/99 BVLV008 (H3N2). Format: cell-based, influenza virus. Particulars: plaque numbers reduced by 50%; for EC50: Influenza A virus, H3N2, MDCK, read-out: EC50 ng/ml PRA A/Pan.
Assay [6] concerns B/Yamanashi/166/98 BVLV007. Format: cell-based, influenza virus. As to conditions: plaque numbers reduced by 50%; for EC50 ng/ml PRA B/Yam: B/Yamanashi/166/98 BVLV007.
A further assay deals with B/Victoria/1/67. Format: cell-based, influenza virus. As to conditions: plaque numbers reduced by 50%, bis(trifluoroacetic acid salt).

With `CC(=O)N[C@H]1[C@H]([C@H](O)[C@H](O)CO)OC(C(=O)O)=C[C@@H]1NC(=N)N` [Compound A], the EC50 in assay [1] was determined as 0.27 ng/mL (≈ 0.812 nM); in [2] (Influenza A virus, H3N2, MDCK, read-out: EC50 ng/ml PRA A/Vic), 5.5 ng/mL (≈ 16.6 nM); in the assay with B/Harbin/7/95 BVLV008, 0.19 ng/mL (≈ 0.572 nM); in the assay on A/WSN/33 BVLV09 (H1N1), 56 ng/mL (≈ 169 nM); in the assay on B/Hong Kong/5/72 BVLV012, 21 ng/mL (≈ 63.2 nM); in assay [3], 2.4 ng/mL (≈ 7.22 nM). Moreover, the EC50 stood at 35 ng/mL (≈ 105 nM) in [4] and 2.7 ng/mL (≈ 8.12 nM) in assay [5]. Moreover, the “EC50 ng/ml PRA A/New” value in assay [1] was found to be 0.23 ng/mL (≈ 0.692 nM). In addition, in the assay with A/WSN/33 BVLV09 (H1N1), the “EC50 ng/ml PRA A/WSN” value was more than 100 ng/mL. Besides, in [5], the “EC50 ng/ml PRA A/Pan” value was determined as 3 ng/mL (≈ 9.03 nM).

As for `CC(=O)N[C@H]1[C@H]([C@H](OC(=O)NCCCCCCCCCCCCNC(=O)O[C@@H]([C@@H]2OC(C(=O)O)=C[C@H](NC(=N)N)[C@H]2NC(C)=O)[C@H](O)CO)[C@H](O)CO)OC(C(=O)O)=C[C@@H]1NC(=N)N.O=C(O)C(F)(F)F.O=C(O)C(F)(F)F` [Example 2, (2R,3R,4S)-3-(acetylamino)-2-{(1R,20R,21R)-20-((2R,3R,4S)-3-(acetylamino)-4-{[amino(imino)methyl]amino}-6-carboxy-3,4-dihydro-2H-pyran-2-yl)-1-[(1R)-1,2-dihydroxyethyl]-21,22-dihydroxy-3,18-dioxo-2,19-dioxa-4,17-diazadocos-1-yl}-4-{[amino(imino)methyl]amino}-3,4-dihydro-2H-pyran-6-carboxylic acid bis(trifluoroacetic acid salt)], the “EC50 ng/ml PRA B/Yam” value in assay [6] was less than 0.0001 ng/mL. Moreover, in the assay with B/Victoria/1/67, the “EC50 ng/ml PRA B/Vic” value was 0.04 ng/mL and 0.05 ng/mL. In addition, in assay [3], the “EC50 ng/ml PRA A/Syd” value is less than 0.0001 ng/mL.

Consider `CC(=O)N[C@H]1[C@H]([C@H](OC(=O)NCCCCCCCCCCCCCCNC(=O)O[C@@H]([C@@H]2OC(C(=O)O)=C[C@H](NC(=N)N)[C@H]2NC(C)=O)[C@H](O)CO)[C@H](O)CO)OC(C(=O)O)=C[C@@H]1NC(=N)N.O=C(O)C(F)(F)F.O=C(O)C(F)(F)F` [Example 3, (2R,3R,4S)-3-(acetylamino)-2-{(1R,22R,23R)-22-((2R,3R,4S)-3-(acetylamino)-4-{[amino(imino)methyl]amino}-6-carboxy-3,4-dihydro-2H-pyran-2-yl)-1-[(1R)-1,2-dihydroxyethyl]-23,24-dihydroxy-3,20-dioxo-2,21-dioxa-4,19-diazatetracos-1-yl}-4-{[amino(imino)methyl]amino}-3,4-dihydro-2H-pyran-6-carboxylic acid bis(trifluoroacetic acid salt)], for which the “EC50 ng/ml PRA A/Vic” value in assay [2] amounted to 0.0023 ng/mL. In assay [6], the “EC50 ng/ml PRA B/Yam” value is given as <0.0001, <0.0001 ng/ml. Also, the “EC50 ng/ml PRA B/Vic” value in the assay with B/Victoria/1/67 is 0.009 ng/mL and 0.01 ng/mL. Moreover, in the assay on B/Hong Kong/5/72 BVLV012 (B/Hong Kong/5/72 BVLV012, plaque numbers reduced by 50%), the “EC50 ng/ml PRA B/HongK” value is less than 0.0001 ng/mL. In addition, the “EC50 ng/ml PRA A/Syd” value in assay [3] was found to be 0.000429 ng/mL.

For the compound `CC(=O)N[C@H]1[C@H]([C@H](OC(=O)NCCCCCCCCCCCCCNC(=O)O[C@H](C(O)CO)[C@@H]2OC(C(=O)O)=C[C@H](NC(=N)N)[C@H]2NC(C)=O)[C@H](O)CO)OC(C(=O)O)=C[C@@H]1NC(=N)N` (stereo partly drawn) [Example 4, (2R,3R,4S)-3-(acetylamino)-2-{(1R,21R,22R)-21-((2R,3R,4S)-3-(acetylamino)-4-{[amino(imino)methyl]amino}-6-carboxy-3,4-dihydro-2H-pyran-2-yl)-1-[(1R)-1,2-dihydroxyethyl]-22,23-dihydroxy-3,19-dioxo-2,20-dioxa-4,18-diazatricos-1-yl}-4-{[amino(imino)methyl]amino}-3,4-dihydro-2H-pyran-6-carboxylic acid bis(trifluoroacetic acid salt)], the EC50 in assay [1] was 0.043 ng/mL; in assay [6] (unidentified influenza virus, MDCK, read-out: EC50 ng/ml PRA B/Yam, B/Yamanashi/166/98 BVLV007), less than 0.0001 ng/mL; with A/WSN/33 BVLV09 (H1N1), less than 0.0001 ng/mL; in the assay on B/Hong Kong/5/72 BVLV012, 0.06 ng/mL; in [3] it was less than 0.0001 ng/mL; in assay [5] it was less than 1e-05 ng/mL.
